# pIC50: −log10 of the molar value.
# Key:
# NRAS Q61R = NRAS Q61R (Homo sapiens, UniProt P01111+P62937, Q61R); assay: Disruption of BRAF RBD interaction with Ras (FRET / MOA assay, with Cyclophilin A); format: biochemical; conditions: NRAS Q61R; read-out: NRAS Q61R FRET data IC50
# Outline: (§1)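 IC50 reflects compound-driven Ras:Cyclophilin A ternary complex displacing BRAF RBD, read as lowered TR-FRET ratio relative to DMSO after Eu anti-His (10 nM) and APC anti-GST (50 nM) detection for 1.5 h. Prior incubation 3 h, 25° C, with 12.5 nM GMPPNP-loaded Ras, 50 nM BRAF RBD, 25 μM Cyclophilin A; top compound 30 μM.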
# NRAS Q61K = NRAS Q61K (Homo sapiens, UniProt P01111+P62937, Q61K); assay: as above; format: biochemical; conditions: NRAS Q61K; read-out: NRAS Q61K FRET data IC50
# Sequence of NRAS Q61K (P01111 whole entry Q61K): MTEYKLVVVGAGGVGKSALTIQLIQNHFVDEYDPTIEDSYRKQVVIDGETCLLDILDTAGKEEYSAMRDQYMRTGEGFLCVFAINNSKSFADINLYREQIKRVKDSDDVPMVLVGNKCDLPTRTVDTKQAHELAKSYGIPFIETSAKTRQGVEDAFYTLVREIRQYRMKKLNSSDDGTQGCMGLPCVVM
# Sequence of NRAS Q61K (P62937 whole entry): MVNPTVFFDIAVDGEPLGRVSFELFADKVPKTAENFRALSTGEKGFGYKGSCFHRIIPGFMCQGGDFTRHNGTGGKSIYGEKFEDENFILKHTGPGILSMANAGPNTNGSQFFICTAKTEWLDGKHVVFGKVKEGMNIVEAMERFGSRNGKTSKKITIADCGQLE
# Outline: as §1
# NRAS WT = NRAS WT (Homo sapiens, UniProt P01111+P62937); assay: as above; format: biochemical; conditions: NRAS WT; read-out: NRAS WT FRET data IC50
# Sequence of NRAS WT (P01111 whole entry): as the sequence (P01111 whole entry Q61K) above, with K61Q counted along it
# Sequence of NRAS WT (P62937 whole entry): as the sequence (P62937 whole entry) above
# Outline: as §1
# KRAS Q61H = KRAS Q61H (Homo sapiens, UniProt P01116+P62937, Q61H); assay: as above; format: biochemical; conditions: KRAS Q61H; read-out: KRAS Q61H FRET data IC50
# Sequence of KRAS Q61H (P01116 1-169 isoform P01116-2 Q61H limits assumed): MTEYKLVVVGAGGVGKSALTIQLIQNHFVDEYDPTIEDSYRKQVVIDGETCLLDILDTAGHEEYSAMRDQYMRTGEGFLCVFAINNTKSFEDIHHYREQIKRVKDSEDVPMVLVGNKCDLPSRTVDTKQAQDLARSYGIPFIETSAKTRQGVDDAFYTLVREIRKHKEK
# Sequence of KRAS Q61H (P62937 whole entry): as the sequence (P62937 whole entry) above
# Outline: as §1
# Capan-1 (K-Ras G12V) = assay: CellTiter-Glo cell viability assay, 5-day treatment; format: cell-based; conditions: Homo sapiens, CAPAN-1, 120 h, 5-day treatment; read-out: Capan-1 Cell Viability assay data (K-Ras G12V, IC50)
# Outline: (§2)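 Viability is read as luminescence on day 5 after direct compound addition to plated cells, following about 30 minutes' room-temperature equilibration. Each signal is scaled to mean DMSO as 100%.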
# NCI-H358 (K-Ras G12C) = assay: as above; format: cell-based; conditions: Homo sapiens, NCI-H358, 120 h, 5-day treatment; read-out: H358 Cell Viability assay data (K-Ras G12C, IC50)
# Outline: as §2
# KRAS G13D = KRAS G13D (Homo sapiens, UniProt P01116+P62937, G13D); assay: Disruption of BRAF RBD interaction with Ras (FRET / MOA assay, with Cyclophilin A); format: biochemical; conditions: KRAS G13D; read-out: KRAS G13D FRET data IC50
# Sequence of KRAS G13D (P01116 1-169 isoform P01116-2 G13D limits assumed): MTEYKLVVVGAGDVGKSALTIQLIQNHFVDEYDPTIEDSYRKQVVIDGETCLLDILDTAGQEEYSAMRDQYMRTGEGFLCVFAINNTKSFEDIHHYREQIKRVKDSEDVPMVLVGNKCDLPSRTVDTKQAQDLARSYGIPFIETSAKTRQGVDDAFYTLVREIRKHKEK
# Sequence of KRAS G13D (P62937 whole entry): as the sequence (P62937 whole entry) above
# Outline: (§3)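 IC50 values reflect loss of K-Ras binding to BRAF RBD, read as a lowered TR-FRET ratio compared with DMSO, driven by compound-mediated K-Ras:Cyclophilin A complex formation. Compound top dose 30 μM final, 3-fold steps, 3 h incubation at 25 °C before a 1.5 h antibody step.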
# NRAS G12C = NRAS G12C (Homo sapiens, UniProt P01111+P62937, G12C); assay: as above; format: biochemical; conditions: NRAS G12C; read-out: NRAS G12C FRET data IC50
# Sequence of NRAS G12C (P01111 whole entry G12C): as the sequence (P01111 whole entry Q61K) above, with G12C, K61Q counted along it
# Sequence of NRAS G12C (P62937 whole entry): as the sequence (P62937 whole entry) above
# KRAS G12D = KRAS G12D (Homo sapiens, UniProt P01116+P62937, G12D); assay: as above; format: biochemical; conditions: read-out: KRAS G12D FRET data, IC50
# Sequence of KRAS G12D (P01116 1-169 isoform P01116-2 G12D limits assumed): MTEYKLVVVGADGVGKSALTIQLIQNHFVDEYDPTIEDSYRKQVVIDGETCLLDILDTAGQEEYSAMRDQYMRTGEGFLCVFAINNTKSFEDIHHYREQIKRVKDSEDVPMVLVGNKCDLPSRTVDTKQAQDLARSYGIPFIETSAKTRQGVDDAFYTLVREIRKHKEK
# Sequence of KRAS G12D (P62937 whole entry): as the sequence (P62937 whole entry) above
# Outline: as §3
# KRAS G12S = KRAS G12S (Homo sapiens, UniProt P01116+P62937, G12S); assay: as above; format: biochemical; conditions: read-out: KRAS G12S FRET data, IC50
# Sequence of KRAS G12S (P01116 1-169 isoform P01116-2 G12S limits assumed): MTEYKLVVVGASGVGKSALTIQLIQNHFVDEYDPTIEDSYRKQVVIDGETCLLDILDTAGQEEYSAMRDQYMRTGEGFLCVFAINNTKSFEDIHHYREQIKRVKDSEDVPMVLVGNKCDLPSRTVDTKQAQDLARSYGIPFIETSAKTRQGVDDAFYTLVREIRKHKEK
# Sequence of KRAS G12S (P62937 whole entry): as the sequence (P62937 whole entry) above
# Outline: as §3
# KRAS G12V = KRAS G12V (Homo sapiens, UniProt P01116+P62937, G12V); assay: as above; format: biochemical; conditions: KRAS G12V; read-out: KRAS G12V FRET data IC50
# Sequence of KRAS G12V (P01116 1-169 isoform P01116-2 G12V limits assumed): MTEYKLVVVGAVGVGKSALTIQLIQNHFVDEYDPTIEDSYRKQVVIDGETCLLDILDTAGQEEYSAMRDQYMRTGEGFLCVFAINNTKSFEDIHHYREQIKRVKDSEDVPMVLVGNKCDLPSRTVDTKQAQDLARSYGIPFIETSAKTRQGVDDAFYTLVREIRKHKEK
# Sequence of KRAS G12V (P62937 whole entry): as the sequence (P62937 whole entry) above
# Outline: as §3
# KRAS WT = KRAS WT (Homo sapiens, UniProt P01116+P62937); assay: as above; format: biochemical; conditions: KRAS WT; read-out: KRAS WT FRET data IC50
# Sequence of KRAS WT (P01116 1-169 isoform P01116-2 limits assumed): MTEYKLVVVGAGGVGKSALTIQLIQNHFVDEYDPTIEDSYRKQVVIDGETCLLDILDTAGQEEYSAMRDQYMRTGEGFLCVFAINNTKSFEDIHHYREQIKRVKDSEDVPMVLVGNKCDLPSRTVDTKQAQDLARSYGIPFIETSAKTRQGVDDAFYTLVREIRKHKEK
# Sequence of KRAS WT (P62937 whole entry): as the sequence (P62937 whole entry) above
# Outline: as §3
# KRAS G12C = KRAS G12C (Homo sapiens, UniProt P01116+P62937, G12C); assay: as above; format: biochemical; conditions: read-out: KRAS G12C FRET data, IC50
# Sequence of KRAS G12C (P01116 1-169 isoform P01116-2 G12C): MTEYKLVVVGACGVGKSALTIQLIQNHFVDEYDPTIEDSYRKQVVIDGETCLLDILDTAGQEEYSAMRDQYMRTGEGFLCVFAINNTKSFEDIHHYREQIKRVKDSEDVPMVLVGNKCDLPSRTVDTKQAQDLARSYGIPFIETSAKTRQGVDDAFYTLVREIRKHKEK
# Sequence of KRAS G12C (P62937 whole entry): as the sequence (P62937 whole entry) above
# Outline: as §3
# KRAS G13C = KRAS G13C (Homo sapiens, UniProt P01116+P62937, G13C); assay: as above; format: biochemical; conditions: read-out: KRAS G13C FRET data, IC50
# Sequence of KRAS G13C (P01116 1-169 isoform P01116-2 G13C): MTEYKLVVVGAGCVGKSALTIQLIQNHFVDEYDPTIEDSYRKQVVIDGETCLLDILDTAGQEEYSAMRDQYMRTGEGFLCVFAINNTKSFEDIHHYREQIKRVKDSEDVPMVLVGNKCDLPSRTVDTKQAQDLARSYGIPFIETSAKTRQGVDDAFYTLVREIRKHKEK
# Sequence of KRAS G13C (P62937 whole entry): as the sequence (P62937 whole entry) above
# Outline: as §3
# Sequence of NRAS Q61R (P01111 whole entry Q61R): as the sequence (P01111 whole entry Q61K) above, with K61R counted along it
# Sequence of NRAS Q61R (P62937 whole entry): as the sequence (P62937 whole entry) above
Compound,pIC50 (NRAS Q61R),pIC50 (NRAS Q61K),pIC50 (NRAS WT),pIC50 (KRAS Q61H),pIC50 (Capan-1 (K-Ras G12V)),pIC50 (NCI-H358 (K-Ras G12C)),pIC50 (KRAS G13D),pIC50 (NRAS G12C),pIC50 (KRAS G12D),pIC50 (KRAS G12S),pIC50 (KRAS G12V),pIC50 (KRAS WT),pIC50 (KRAS G12C),pIC50 (KRAS G13C)
"CCn1c(-c2cccnc2[C@H](C)OC)c2c3cc(ccc31)-c1csc(n1)C[C@H](NC(=O)[C@H](C(C)C)N(C)C(=O)N1CC([C@H](C)OC)C1)C(=O)N1CCC[C@H](N1)C(=O)OCC(C)(C)C2 (atropisomer, axis not shown) [Example A279]",7.00 to 8.00,7.00 to 8.00,7.00 to 8.00,7.00 to 8.00,7.00 to 8.00,7.00 to 8.00,6.00 to 7.00,7.00 to 8.00,6.00 to 7.00,6.00 to 7.00,7.00 to 8.00,6.00 to 7.00,7.00 to 8.00,6.00 to 7.00
"CCn1c(-c2cccnc2[C@H](C)OC)c2c3cc(ccc31)-c1csc(n1)C[C@H](NC(=O)[C@H](C(C)C)N(C)C(=O)N1CC3(CC(N(C)C)C3)C1)C(=O)N1CCC[C@H](N1)C(=O)OCC(C)(C)C2 (atropisomer, axis not shown) [Example A280]",6.00 to 7.00,7.00 to 8.00,6.00 to 7.00,7.00 to 8.00,7.00 to 8.00,7.00 to 8.00,6.00 to 7.00,7.00 to 8.00,6.00 to 7.00,6.00 to 7.00,6.00 to 7.00,6.00 to 7.00,7.00 to 8.00,6.00 to 7.00
"CCn1c(-c2cccnc2[C@H](C)OC)c2c3cc(ccc31)-c1csc(n1)C[C@H](NC(=O)[C@H](C(C)C)N(C)C(=O)N1CC(N(C)C3CC3)C1)C(=O)N1CCC[C@H](N1)C(=O)OCC(C)(C)C2 (atropisomer, axis not shown) [Example A285]",6.00 to 7.00,7.00 to 8.00,6.00 to 7.00,7.00 to 8.00,7.00 to 8.00,7.00 to 8.00,6.00 to 7.00,7.00 to 8.00,6.00 to 7.00,6.00 to 7.00,6.00 to 7.00,6.00 to 7.00,7.00 to 8.00,6.00 to 7.00
"CCn1c(-c2cccnc2[C@H](C)OC)c2c3cc(ccc31)-c1csc(n1)C[C@H](NC(=O)[C@H](C(C)C)N(C)C(=O)N1CCN(C(=O)CN(C)C)CC1)C(=O)N1CCC[C@H](N1)C(=O)OCC(C)(C)C2 (atropisomer, axis not shown) [Example A290]",6.00 to 7.00,7.00 to 8.00,7.00 to 8.00,7.00 to 8.00,7.00 to 8.00,7.00 to 8.00,6.00 to 7.00,7.00 to 8.00,6.00 to 7.00,6.00 to 7.00,6.00 to 7.00,7.00 to 8.00,7.00 to 8.00,6.00 to 7.00
"CCn1c(-c2cccnc2[C@H](C)OC)c2c3cc(ccc31)-c1csc(n1)C[C@H](NC(=O)[C@H](C(C)C)N(C)C(=O)N1CC(OC(F)F)C1)C(=O)N1CCC[C@H](N1)C(=O)OCC(C)(C)C2 (atropisomer, axis not shown) [Example A302]",6.00 to 7.00,7.00 to 8.00,6.00 to 7.00,7.00 to 8.00,7.00 to 8.00,> 8.00,6.00 to 7.00,7.00 to 8.00,6.00 to 7.00,6.00 to 7.00,6.00 to 7.00,6.00 to 7.00,7.00 to 8.00,6.00 to 7.00
"CCn1c(-c2cccnc2[C@H](C)OC)c2c3cc(ccc31)-c1csc(n1)C[C@H](NC(=O)[C@H](C(C)C)N(C)C(=O)N1CCN(C(=O)CO)CC1)C(=O)N1CCC[C@H](N1)C(=O)OCC(C)(C)C2 (atropisomer, axis not shown) [Example A306]",7.00 to 8.00,7.00 to 8.00,7.00 to 8.00,7.00 to 8.00,7.00 to 8.00,> 8.00,6.00 to 7.00,7.00 to 8.00,6.00 to 7.00,6.00 to 7.00,6.00 to 7.00,7.00 to 8.00,7.00 to 8.00,6.00 to 7.00
"CCn1c(-c2cccnc2[C@H](C)OC)c2c3cc(ccc31)-c1csc(n1)C[C@H](NC(=O)[C@H](C(C)C)N(C)C(=O)N1CCO[C@@H](C)C1)C(=O)N1CCC[C@H](N1)C(=O)OCC(C)(C)C2 (atropisomer, axis not shown) [Example A309]",7.00 to 8.00,7.00 to 8.00,7.00 to 8.00,7.00 to 8.00,7.00 to 8.00,> 8.00,6.00 to 7.00,7.00 to 8.00,6.00 to 7.00,6.00 to 7.00,6.00 to 7.00,6.00 to 7.00,7.00 to 8.00,6.00 to 7.00
"CCn1c(-c2cccnc2[C@H](C)OC)c2c3cc(ccc31)-c1csc(n1)C[C@H](NC(=O)[C@H]1CCCO1)C(=O)N1CCC[C@H](N1)C(=O)OCC(C)(C)C2 (atropisomer, axis not shown) [Example A315]",5.00 to 6.00,6.00 to 7.00,6.00 to 7.00,6.00 to 7.00,6.00 to 7.00,6.00 to 7.00,6.00 to 7.00,6.00 to 7.00,5.00 to 6.00,6.00 to 7.00,6.00 to 7.00,6.00 to 7.00,6.00 to 7.00,6.00 to 7.00
"CCn1c(-c2cccnc2[C@H](C)OC)c2c3cc(ccc31)-c1csc(n1)C[C@H](NC(=O)[C@H](C(C)C)N(C)C(=O)N1CCCOCC1)C(=O)N1CCC[C@H](N1)C(=O)OCC(C)(C)C2 (atropisomer, axis not shown) [Example A335]",7.00 to 8.00,7.00 to 8.00,7.00 to 8.00,7.00 to 8.00,7.00 to 8.00,> 8.00,6.00 to 7.00,7.00 to 8.00,6.00 to 7.00,7.00 to 8.00,6.00 to 7.00,7.00 to 8.00,7.00 to 8.00,6.00 to 7.00

# Source: patent publication US20230233569A1 (Revolution Medicines, Inc., priority 2020, published 2023)
